# Tests used:
# [1] = test system: IGROV-1 and OVCAR-3 cell lines; experiment: Proliferation of ovarian cancer cell lines, AlamarBlue; type: cell-based; details: IGROV-1 and OVCAR-3, with serum
# Experimental: IGROV-1 and OVCAR-3 cell lines were grown in the presence of serum plus the indicated concentrations of the compound of formula I. Proliferation was measured in triplicate wells by AlamarBlue assay (Invitrogen) 96-well plates.
# HuVEC cells = experiment: AKT and ERK1/2 in HuVEC lysates, immunoblotting; type: cell-based, human; details: 0-200 μM; 8 h
# Text: Actin was used as a loading control.
# [2] = test system: T47D and HS-578T cell lines; experiment: Proliferation of breast cancer cell lines, AlamarBlue; type: cell-based; details: with serum
# Experimental: T47D and HS-578T cell lines were grown in the presence of serum plus the indicated concentrations of the compound of formula I. Proliferation was measured in triplicate wells by AlamarBlue® assay (Invitrogen) 96-well plates.
# MM.1S cells = experiment: AKT and ERK phosphorylation, immunoblotting; type: cell-based, human; details: MM.1S cells with low expression of P110δ; 6 hours
# Text: (§1) Whole-cell lysates were subjected to sodium dodecyl sulfate-polyacrylamide gel electrophoresis (SDS-PAGE) separation, transferred to Pure Nitrocellulose membranes (Bio-Rad Laboratories, Hercules, Calif.), and immunoblotted with anti-AKT, phospho(p)-AKT (Ser473, Thr 308), ERK1/2 , P-ERK1/2, P-PDK1, STAT, P-STAT, P-FKRHL, P-70S6K, LC3, and PI3K/p110 α Abs (Cell Signaling Danvers, Mass.); anti-p110β, PI3K/p110δ, Glyceraldehyde 3-phosphate dehydrogenase (GAPDH), α-tubulin, and actin Abs (Santa Cruz Biotechnology, Calif.); and anti-p110 γ Ab (Alexis, San Diego, Calif.): and anti-LC3 Ab (Abgent, San Diego, Calif.).
# Actin Ab was used as a loading control. […] Whole cell lysates were subjected to immunoblotting using AKT, P-AKT (Ser473 and Thr308), ERK1/2, P-ERK1/2, P-PDK1, and P-FKRHL antibodies. α-tubulin is used as a loading control.
# [3] = test system: LB and INA-6 MM cells with BMSCs; experiment: Paracrine MM cell growth, cytokine secretion and signaling with BMSCs; type: cell-based, human; details: 48 h
# Experimental: MM cells (2×10^4 cells/well) were cultured for 48 h in BMSC coated 96-well plates (Costar, Cambridge, Mass.), in the presence or absence of drug. DNA synthesis was measured by [3H]-thymidine (Perkin-Elmer, Boston, Mass.) uptake, with [3H]-thymidine (0.5μ Ci/well) added during the last 8 h of 48 h cultures. All experiments were performed in quadruplicate.
# Cytokine secretion by human BMSCs cocultured with MM cells was assessed by ELISA. […] After 48 h, supernatants were harvested and stored at −80° C. Cytokines were measured using Duo set ELISA Development Kits (R&D Systems, Minneapolis, Minn.). All measurements were carried out in triplicate.
# The cytokine levels in culture supernatants were assessed using Proteome Profiler Antibody Arrays Panel A (R&D Systems, Minneapolis, Minn.), Supernatants from co-cultures with BMSCs were incubated for 4 hours with membranes arrayed with Abs against 37 cytokines, according to manufacturer's instructions.
# DNA synthesis was determined by [3H]-thymidine incorporation. Data represent means (±SD) of triplicate cultures.
# Error bars indicate SD (±).
# INA-6 cells cultured with or without BMSCs were treated with compound for 48 h. Total cell lysates were subjected to immunoblotting using indicated antibodies, FIG. 34F. Actin was used as a loading control.
# INA-6 and LB MM cells = experiment: Autophagy: LC3 accumulation, AVO acridine orange staining, LC3/beclin-1 western blot; type: cell-based, human
# Text: Samples were examined under a fluorescence microscope.
# Autophagosome formation was defined by the accumulation of LC3; arrows indicate autophagosomes, FIG. 33A.
# GAPDH served as a loading control.
# MCL cell lines = experiment: Survival factor signaling (pAkt) in MCL cell lines; type: cell-based
# [4] = test system: Akt (Ser473) phosphorylation; experiment: Akt phosphorylation in ALL cell lines; type: cell-based
# patient MM cells = experiment: Viability of patient MM cells, MTT; type: cell-based, human; details: 48 h
# Text: Patient MM and BM cells were obtained from BM samples after informed consent was obtained per the Declaration of Helsinki and approval by the Institutional Review Board of the Dana-Farber Cancer Institute (Boston, Mass.). BM mononuclear cells were separated using Ficoll-Paque™ density sedimentation, and plasma cells were purified (>95% CD138+) by positive selection with anti-CD138 magnetic activated cell separation micro beads (Miltenyi Biotec, Auburn, Calif.). Tumor cells were also purified from the BM of MM patients using the RosetteSep negative selection system (StemCell Technologies, Vancouver, BC, Canada).
# Data represent mean ±SD viability, assessed by MTT assay of triplicate cultures, expressed as percentage of untreated controls.
# INA-6 cells = experiment: Cleavage of caspases and PARP, western blot; type: cell-based, human; details: 0-5 μM, 120 h
# Text: as §1
# Total cell lysates were subjected to immunoblotting using anti-caspase-3, -8, -9, PARP, and α-tubulin Abs. FL indicates full-length protein, and CL indicates cleaved protein.
# HuVECs = experiment: HuVEC viability, MTT; type: cell-based, human; details: 0-20 μM, 48 h
# Text: Data shown are mean ±SE of triplicate wells from a representative experiment.
# CCRF-SB cells = experiment: Cell cycle FACS analysis, propidium iodide; type: cell-based; details: CCRF-SB ALL cell line
# Experimental: Representative fluorescence-activated cell sorting (FACS) analysis of propidium iodide-stained CCRF-SB cells under normal growth conditions, and growth in the presence of the compound of formula I. The average percentage of cells in G0-G1, S, and G2-M phases is calculated in the table below the histographs.
structure (smiles),measurement,setting,value
"CC[C@H](Nc1ncnc2[nH]cnc12)c1nc2cccc(F)c2c(=O)n1-c1ccccc1 [Compound I, 5-fluoro-3-phenyl-2-[1-(9H-purin-6-ylamino)-propyl]-3H-quinazolin-4-one]",proliferation of ovarian cancer cell lines,[1],inhibits proliferation
same,phosphorylation and expression of AKT and ERK1/2,HuVEC cells,markedly down regulated
same,proliferation of breast cancer cell lines,[2],inhibits proliferation
same,phosphorylation of AKT or ERK,MM.1S cells,did not affect
same,MM cell growth induced by BMSCs,"[3]; 2.5, 5, 10 μM",inhibited
same,cytokine secretion induced by BMSCs,"[3]; ELISA, cytokine arrays",inhibited
same,phosphorylation of AKT and ERK induced by BMSCs,[3]; INA-6 with BMSCs,inhibited
same,LC3 staining (immunofluorescence),"INA-6 and LB MM cells; 5 μM, 6 h, INA-6 and LB cells",markedly increased LC 3 staining
same,LC3-II and Beclin1 protein,"INA-6 and LB MM cells; INA-6, 6 h",markedly increased
same,acidic vesicular organelles (acridine orange staining),INA-6 and LB MM cells; LB and INA-6 cells,development of AVOs
same,pAkt in MCL lines exposed to survival factors,MCL cell lines,significant reduction of pAkt
same,Akt phosphorylation in ALL cell lines,[4],reduction in Akt phosphorylation
same,cytotoxicity against patient MM cells,patient MM cells,induced cytotoxicity
same,"cleavage of caspase-8, caspase-9, caspase-3, and PARP",INA-6 cells,Significantly increased cleavage
same,cytotoxicity in HuVECs,HuVECs,without associated cytotoxicity
same,cell cycle effect,CCRF-SB cells,G0/G1 cell cycle arrest

# Reference: patent publication US20190083498A1, “THERAPIES FOR HEMATOLOGIC MALIGNANCIES” (GILEAD CALISTOGA LLC, priority 2008, published 2019)
